The target of test [1] is T1, human recombinant ETB receptors (Homo sapiens, UniProt P24530).
T1 construct: expressed in transfected cells; host or cells: CHO cells (microsomal membranes)
T1 sequence (P24530 27-442): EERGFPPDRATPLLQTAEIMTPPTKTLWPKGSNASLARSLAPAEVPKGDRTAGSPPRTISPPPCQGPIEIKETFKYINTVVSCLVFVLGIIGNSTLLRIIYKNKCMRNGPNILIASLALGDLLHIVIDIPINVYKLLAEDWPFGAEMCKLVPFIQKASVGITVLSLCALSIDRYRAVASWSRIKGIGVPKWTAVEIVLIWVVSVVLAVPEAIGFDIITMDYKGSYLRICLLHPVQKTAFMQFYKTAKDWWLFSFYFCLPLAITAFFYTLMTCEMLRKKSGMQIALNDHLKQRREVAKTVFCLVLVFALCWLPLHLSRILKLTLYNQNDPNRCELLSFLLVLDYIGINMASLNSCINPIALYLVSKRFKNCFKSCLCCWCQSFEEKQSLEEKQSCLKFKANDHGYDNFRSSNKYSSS
As to the kind of experiment: Inhibition of [125I]ET-1 binding to membranes from CHO cells carrying human ETB receptors. On the procedure: (§1) 1) Inhibition of Endothelin Binding to Membranes from CHO Cells Carrying Human ET Receptors:
(§2) For competition binding studies, membranes of CHO cells expressing human recombinant ETA or ETB receptors were used.
(§3) The assay was performed in 200 uL 50 mM Tris/HCl buffer, pH 7.4, including 25 mM MnCl2, 1 mM EDTA and 0.5% (w/v) BSA in polypropylene microtiter plates. […] After 2 h, the membranes were filtered on filterplates containing GF/C filters (Unifilterplates from Canberra Packard S.A. Zürich, Switzerland). To each well, 50 uL of scintillation cocktail was added (MicroScint 20, Canberra Packard S.A. Zürich, Switzerland) and the filter plates counted in a microplate counter (TopCount, Canberra Packard S.A. Zürich, Switzerland).
(§4) All the test compounds were dissolved, diluted and added in DMSO.

Test [2] has as its target T2, human recombinant ETA receptors (Homo sapiens, UniProt P25101).
T2 construct: expressed in transfected cells; host or cells: CHO cells (microsomal membranes)
T2 sequence (P25101 21-427): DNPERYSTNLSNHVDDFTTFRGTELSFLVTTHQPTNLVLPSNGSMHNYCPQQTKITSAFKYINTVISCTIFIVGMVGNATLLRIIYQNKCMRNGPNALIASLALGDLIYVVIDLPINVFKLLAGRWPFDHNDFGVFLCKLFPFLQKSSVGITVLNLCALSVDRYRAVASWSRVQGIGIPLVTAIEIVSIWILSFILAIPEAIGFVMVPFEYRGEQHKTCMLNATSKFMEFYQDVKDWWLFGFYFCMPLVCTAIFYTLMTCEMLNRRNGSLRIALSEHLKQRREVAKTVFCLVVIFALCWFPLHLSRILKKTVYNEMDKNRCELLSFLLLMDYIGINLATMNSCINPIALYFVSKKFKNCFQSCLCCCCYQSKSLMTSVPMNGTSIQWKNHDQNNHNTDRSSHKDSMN
Description: Inhibition of [125I]ET-1 binding to membranes from CHO cells carrying human ETA receptors. On the procedure:
as §1, §2, §3, §4

For orientation: IC50 means the concentration that gives 50% inhibition.
Note: 2.5% DMSO.

As for `CCS(=O)(=O)Nc1ncnc(OCCOc2ncc(Br)cn2)c1Oc1ccccc1OC` [Example 40], the IC50 in test [1] was 636 nM; in test [2] it was 19 nM.
In the same order, the values of `CCS(=O)(=O)Nc1ncnc(OCCOc2ncc(OC)cn2)c1Oc1ccccc1OC` [Example 41] are 678 nM and 28 nM.
Take `CCS(=O)(=O)Nc1ncnc(OCCOc2ncc(SC)cn2)c1Oc1ccccc1OC` [Example 42]: the figures for the IC50 in test [1] and in test [2] were 105 nM and 5.7 nM, respectively.
In the same order, the values of `Cc1ccc(-c2c(NS(C)(=O)=O)ncnc2OCCOc2ncc(Br)cn2)cc1` [Example 47] are greater than 1000 nM and 2.9 nM.
The like results for `COc1cnc(OCCOc2ncnc(NS(C)(=O)=O)c2-c2ccc(C)cc2)nc1` [Example 48] were, in that order, greater than 1000 nM and 23 nM.
The like results for `CSc1cnc(OCCOc2ncnc(NS(C)(=O)=O)c2-c2ccc(C)cc2)nc1` [Example 49] were, in that order, greater than 1000 nM and 2.3 nM.
For `Cc1ccc(-c2c(NS(C)(=O)=O)ncnc2OCCCOc2ncc(Br)cn2)cc1` [Example 50], the IC50 in test [1] was greater than 1000 nM; in test [2], 397 nM.
Consider `CS(=O)(=O)Nc1ncnc(OCCOc2ncc(Br)cn2)c1-c1ccc(Br)cc1` [Example 53], for which the IC50 in test [1] stood at 824 nM; in test [2] it was 1.1 nM.
In the same order, the values of `COc1cnc(OCCOc2ncnc(NS(C)(=O)=O)c2-c2ccc(Br)cc2)nc1` [Example 54] are greater than 1000 nM and 18 nM.
In the same order, the values of `CSc1cnc(OCCOc2ncnc(NS(C)(=O)=O)c2-c2ccc(Br)cc2)nc1` [Example 55] are 454 nM and 1.3 nM.
For `CS(=O)(=O)Nc1ncnc(OCCOc2ncc(S(C)(=O)=O)cn2)c1-c1ccc(Br)cc1` [Example 56], the IC50 in test [1] was 359 nM; in test [2], 1.6 nM.
`CS(=O)(=O)Nc1ncnc(OCCOc2ncc(C3CC3)cn2)c1-c1ccc(Br)cc1` [Example 57]: the IC50 in test [1] is greater than 1000 nM; in test [2], 6.9 nM.
The like results for `CCS(=O)(=O)Nc1ncnc(OCCOc2ncc(Br)cn2)c1-c1ccc(Br)cc1` [Example 58] were, in that order, 838 nM and 0.66 nM.
The like results for `CCS(=O)(=O)Nc1ncnc(OCCOc2ncc(OC)cn2)c1-c1ccc(Br)cc1` [Example 59] were, in that order, greater than 1000 nM and 6.8 nM.
In the same order, the values of `CCS(=O)(=O)Nc1ncnc(OCCOc2ncc(SC)cn2)c1-c1ccc(Br)cc1` [Example 60] are 427 nM and 0.8 nM.
`CCS(=O)(=O)Nc1ncnc(OCCOc2ncc(S(C)(=O)=O)cn2)c1-c1ccc(Br)cc1` [Example 61]: the results for the 50% inhibitory concentration (IC50) in test [1] and in test [2] were 271 nM and 1.1 nM, respectively.
For the compound `CCS(=O)(=O)Nc1nc(C2CC2)nc(OCCOc2ncc(Br)cn2)c1-c1ccc(C)cc1` [Example 62], the IC50 in test [1] is greater than 1000 nM; in test [2], 5.5 nM.
The like results for `CCS(=O)(=O)Nc1nc(C2CC2)nc(OCCOc2ncc(OC)cn2)c1-c1ccc(C)cc1` [Example 63] were, in that order, greater than 1000 nM and 25 nM.
In the same order, the values of `CCS(=O)(=O)Nc1nc(C2CC2)nc(OCCOc2ncc(SC)cn2)c1-c1ccc(C)cc1` [Example 64] are greater than 1000 nM and 3.5 nM.
Take `CCS(=O)(=O)Nc1nc(C2CC2)nc(OCCOc2ncc(S(C)(=O)=O)cn2)c1-c1ccc(C)cc1` [Example 65]: the IC50 in test [1] was greater than 1000 nM; in test [2], 1.4 nM.
Regarding `CCS(=O)(=O)Nc1ncnc(OCCOc2ncc(Br)cn2)c1-c1ccc(Cl)cc1` [Example 66], the IC50 is greater than 1000 nM in test [1] and 1.5 nM in test [2].
In the same order, the values of `CCS(=O)(=O)Nc1ncnc(OCCOc2ncc(OC)cn2)c1-c1ccc(Cl)cc1` [Example 67] are greater than 1000 nM and 13 nM.
The like results for `CCS(=O)(=O)Nc1ncnc(OCCOc2ncc(SC)cn2)c1-c1ccc(Cl)cc1` [Example 68] were, in that order, 563 nM and 1.2 nM.
The like results for `CCS(=O)(=O)Nc1ncnc(OCCOc2ncc(S(C)(=O)=O)cn2)c1-c1ccc(Cl)cc1` [Example 69] were, in that order, 314 nM and 1.2 nM.
For the compound `CCCS(=O)(=O)Nc1ncnc(OCCOc2ncc(OC)cn2)c1-c1ccc(Br)cc1` [Example 71], the half-maximal inhibitory concentration (IC50) in test [1] was greater than 1000 nM; in test [2], 3.6 nM.
In the same order, the values of `CCCS(=O)(=O)Nc1ncnc(OCCOc2ncc(SC)cn2)c1-c1ccc(Br)cc1` [Example 72] are 936 nM and 0.6 nM.
`CCCS(=O)(=O)Nc1ncnc(OCCOc2ncc(S(C)(=O)=O)cn2)c1-c1ccc(Br)cc1` [Example 73]: the half-maximal inhibitory concentration (IC50) in test [1] was 277 nM; in test [2], 0.59 nM.
Consider `CCCCS(=O)(=O)Nc1ncnc(OCCOc2ncc(Br)cn2)c1-c1ccc(C)cc1` [Example 74], for which the IC50 in test [1] is greater than 1000 nM; in test [2] it was 0.63 nM.
In the same order, the values of `CCCCS(=O)(=O)Nc1ncnc(OCCOc2ncc(OC)cn2)c1-c1ccc(C)cc1` [Example 75] are greater than 1000 nM and 3.5 nM.
As to `CCCCS(=O)(=O)Nc1ncnc(OCCOc2ncc(SC)cn2)c1-c1ccc(C)cc1` [Example 76], the IC50 in test [1] is greater than 1000 nM; in test [2], 1.1 nM.
The like results for `CCCCS(=O)(=O)Nc1nc(C2CC2)nc(OCCOc2ncc(Br)cn2)c1-c1ccc(C)cc1` [Example 77] were, in that order, greater than 1000 nM and 2.3 nM.
In the same order, the values of `CCCCS(=O)(=O)Nc1nc(C2CC2)nc(OCCOc2ncc(OC)cn2)c1-c1ccc(C)cc1` [Example 78] are greater than 1000 nM and 10 nM.
The like results for `CCCCS(=O)(=O)Nc1nc(C2CC2)nc(OCCOc2ncc(SC)cn2)c1-c1ccc(C)cc1` [Example 79] were, in that order, greater than 1000 nM and 2.1 nM.
On to `CCCCS(=O)(=O)Nc1nc(C2CC2)nc(OCCOc2ncc(S(C)(=O)=O)cn2)c1-c1ccc(C)cc1` [Example 80], for which the results for the half-maximal inhibitory concentration (IC50) in test [1] and in test [2] were greater than 1000 nM and 1.5 nM, respectively.
In the same order, the values of `CCCCS(=O)(=O)Nc1ncnc(OCCOc2ncc(OC)cn2)c1-c1ccc(Br)cc1` [Example 82] are greater than 1000 nM and 1.27 nM.
For the compound `CCCCS(=O)(=O)Nc1ncnc(OCCOc2ncc(SC)cn2)c1-c1ccc(Br)cc1` [Example 83], the IC50 was 640 nM in test [1] and 0.49 nM in test [2].
In the same order, the values of `CCCCS(=O)(=O)Nc1ncnc(OCCOc2ncc(S(C)(=O)=O)cn2)c1-c1ccc(Br)cc1` [Example 84] are 118 nM and 0.56 nM.

(Values after patent publication US7323465B2, “Alkansulfonamides as endothelin antagonists” (Actelion Pharmaceuticals Ltd., priority 2002, dated 2008).)
